Among the data in patent US9718825B2, “N-(4-(azaindazol-6-yl)-phenyl)-sulfonamides and their use as pharmaceuticals” (priority 2013, dated 2017) are IC50 values, retold here.

For test [1], the target named is recombinant human SGK-1 enzyme. Put plainly: Enzymatic activity assay: SGK-1 substrate peptide phosphorylation (Caliper lab-chip mobility shift). Type of test: biochemical. The following applies: peptide substrate 1 μM, ATP 10 μM, 60 min at 37° C., read-out: IC50 values for inhibition of SGK-1 enzymatic activity.
In test [2] the test system is SGK-1 dependent phosphorylation of GSK3beta in U2OS cells. Put plainly: SGK-1 dependent phosphorylation of GSK3beta in U2OS cells overexpressing recombinant SGK-1 and GSK3beta. The test is classed as cell-based, human. The following applies: read-out: IC50 values for inhibition of SGK-1 dependent phosphorylation of GSK3beta in U2OS cells.
Test [3] concerns collagen type X (Col10a1) expression in mouse chondrogenic ATDC5 cells. Put plainly: Chondrocyte hypertrophic differentiation in mouse chondrogenic ATDC5 cells (collagen type X expression). The following applies: Col10a1 expression by quantitative real-time PCR after two weeks of cell culture; read-out: IC50 values for the inhibition of collagen type X expression in mouse chondrogenic ATDC5 cells. The test is classed as cell-based. The text has this: D) Determination of the effect on chondrocyte hypertrophic differentiation in mouse chondrogenic ATDC5 cells
The ATDC5 cell assay was used as in vitro model to determine the effects of the compounds of the invention on chondrocyte hypertrophic differentiation by monitoring the expression levels of collagen type X (Col10a1) as specific marker of chondrocyte hypertrophy.
Background: ATDC5 cells are a clonal mouse embryonic cell line derived from multipotent AT805 teratocarcinoma cells (Atsumi, T. et al., A chondrogenic cell line derived from a differentiating culture of AT805 teratocarcinoma cells, Cell Differ. Dev. 1990, 30, 109-116). The cells can undergo insulin-dependent chondrogenic cell differentiation entailing distinct differentiation stages starting from an undifferentiated, subconfluent stage, a condensation stage, a cartilage nodule formation stage and a calcification stage within 45 days of in vitro culture. Chondrogenic differentiation can be shown by measuring the expression of the cartilage main collagen (Col2a1) and aggrecan (AGC1) and glycosaminoglycan-staining with Alcian Blue within two weeks after insulin-triggered differentiation, and hypertrophic differentiation can be monitored by the expression of collagen type X (Col10a1), a specific marker of chondrocyte hypertrophy within 21 days of in vitro culture. (Shukunami, C. et al., Chondrogenic Differentiation of Clonal Mouse Embryonic Cell Lne ATDC5 In Vitro: Differentiation-dependent Gene Expression of Parathyroid Hormone (PTH)/PTH-related Peptide Receptor, J. Cell Biol. 1996, 133, 457-468). Growth factor BMP-2 is known to stimulate cell differentiation and can stimulate early and late-phase ATDC5 differentiation (Shukunami, C. et al., Sequential Progression of the Differentiation Program by Bone Morphogenetic Protein-2 in Chondrogenic Cell Line ATDC5, Exp. Cell Res. 1998, 241, 1-11). Thyroid hormone triiodothyronine (T3) promotes hypertrophic differentiation of growth plate chondrocytes (Robson, H. et al., Thyroid Hormone Acts Directly on Growth Plate Chondrocytes to Promote Hypertrophic Differentiation and Inhibit Clonal Expansion and Cell Proliferation, Endocrinology 2000, 141, 3887-3897). Addition of BMP2 and T3 can accelerate ATDC5 hypertrophic differentiation leading to the strong induction Col10a1 expression between 10-14 days. SGK-inhibitors were added to differentiating ATDC5 cells for 14 days and Col10a1 gene expression was quantified to determine effects on chondrocyte hypertrophic differentiation.
Cell assay description: ATDC5 cells were maintained in 300 cm^2 tissue culture flasks in DMEM/Ham's F12+5% FCS supplemented with 10 μg/ml human transferrin, 30 nM sodium selenite, 50 μg/ml kanamycin and grown at 37° C. in 5% CO2 in 95% air. To initiate cell differentiation, 9.9×10^4 cells were plated in 24 well plates and grown for 2 days. Medium was exchanged with DMEM/Ham's F12+5% FCS supplemented with 10 μg/ml human transferrin, 30 nM sodium selenite, 50 μg/ml ascorbic acid and 1 μg/ml BMP2. The assay was run in triplicates, compounds were added in […], and medium changed every 2-3 days including supplementation of compound. At day 7 after initiation of cell differentiation, 1 μM T3 was used as additional supplement in the cell culture.
After two weeks of cell culture, RNA was isolated and converted to cDNA for determination of gene expression by quantitative real-time PCR. Cells were lysed in 600 μl of RLT-buffer (Qiagen) and total RNA was isolated using the RNA-easy Mini RNA isolation Kit (Qiagen) which was run on a Qiacube system (Qiagen) according to the supplier's instructions. RNA was isolated in 30 μl of pure water and the RNA content measured by UV-spectroscopy (Nanodrop, Peqlab). For cDNA synthesis 50 ng total RNA was reverse transcribed using the High Capacity cDNA Reverse Transcription Kit (Applied Biosystems, Product Number 4368813) according to the manufacturer's instructions. […]
On the technique in general: Quantitative PCR measures a nucleic acid by following its amplification.

For test [4], the system named is SGK-1 dependent activation of ENaC-currents in A6 cell monolayers. The experiment in a line: Functional electrophysiological assay (Ussing chamber): SGK-1 dependent activation of ENaC-currents in A6 cell monolayers. The test is classed as cell-based, Xenopus laevis. The following applies: hypoosmotic shock 45 min, amiloride-sensitive ΔI'sc, read-out: IC50 values for inhibition of SGK-1 dependent activation of ENaC-currents in A6 cell monolayers. The protocol: C) Functional Electrophysiological Assay for Determination of SGK-1 Dependent Activation of ENaC-Currents in A6 Cell Monolayers
Cells were grown in cell culture flasks (Nunc) at 28° C. in a humidified atmosphere with 4% CO2. The culture medium contained a 7:3 mixture of Leibovitz's L-15 (Sigma-Aldrich)/Coon's (Sigma-Aldrich) media supplemented with 10% fetal bovine serum (PAA), 20% sterile water, 25 mM NaHCO3 (Sigma-Aldrich), 100 U/ml penicillin (PAA) and 100 μg/ml streptomycin (PAA). The osmolality of the medium was 270 mOsml/kg H2O). Cells were detached with accutase (PAA) and seeded for electrophysiological measurements into transwell filter inserts (polyester 0.4 μm pore size, Corning) at a density of 0.4×10^6 cells/filter. Cells were cultivated for 7-10 days, and confluent A6 cell monolayers were identified by repetitive resistance measurements in cell culture medium using an EVOM^2 ohmmeter (World Precision Instruments). Monolayers with a resistance of >10 kOhm were considered confluent. Filters with confluent A6 cells were transferred into a continuously perfused Ussing-chamber, and electrophysiological parameters were measured under open circuit conditions using a transepithelial clamp amplifier (EP Design). Short circuit current (I′sc) was calculated by Ohm's law. […] The pH was adjusted to 8.2. All measurements were done at room temperature.
To evaluate the effects of SGK inhibitors on ENaC-mediated transepithelial currents, A6 monolayers were first equilibrated for 5 min with isoosmotic Ringer solution from both the luminal and basolateral side of the cell layer. Amiloride was applied to the luminal site to establish the basal ENaC-dependent current (I′scbasal). Cell layers were then perfused from the basolateral side for 10 min with compounds in isotonic buffer or control isotonic buffer. SGK signaling leading to increased ENaC activity and subsequent increase in I′sc was stimulated by application of hypoosmotic Ringer-solution for 45 min to both sides of the A6 cell layer. ENaC-dependent I′sc after the hypoosmotic shock (I′schypo) was determined by application of amiloride at the end of the experiment. Total changes of amiloride-sensitive Isc was calculated as ΔI′sc=I′schypo−I′scbasal. […] The inhibition of ΔI′sc by the test compounds was determined relative to the ΔI′sc measured with control monolayers which were not treated with the test compound.

In test [5] the target is recombinant human SGK-1 enzyme (Homo sapiens, UniProt O00141). Put plainly: Enzymatic activity assay: SGK-1 substrate peptide phosphorylation (Caliper lab-chip mobility shift). Type of test: biochemical. The conditions noted are these: peptide substrate 1 μM, ATP 10 μM, 60 min at 37° C., read-out: IC50 values for inhibition of SGK-1 enzymatic activity.

Read-outs that look alike come from different tables or passages of the source.

Chain of recombinant human SGK-1 enzyme (Homo sapiens, UniProt O00141) (O00141 whole entry, looked up): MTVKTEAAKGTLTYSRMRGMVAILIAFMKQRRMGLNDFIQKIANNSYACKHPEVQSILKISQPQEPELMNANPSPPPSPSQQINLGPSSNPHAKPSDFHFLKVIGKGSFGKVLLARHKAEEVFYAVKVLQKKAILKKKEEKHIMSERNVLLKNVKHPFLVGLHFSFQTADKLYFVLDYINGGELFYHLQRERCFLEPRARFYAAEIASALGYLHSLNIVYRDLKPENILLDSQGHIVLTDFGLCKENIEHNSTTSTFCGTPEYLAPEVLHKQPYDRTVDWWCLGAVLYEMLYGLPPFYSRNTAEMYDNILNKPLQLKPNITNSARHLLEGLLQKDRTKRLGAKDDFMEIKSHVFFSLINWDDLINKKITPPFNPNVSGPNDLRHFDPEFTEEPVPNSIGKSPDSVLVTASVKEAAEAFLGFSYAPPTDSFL

Turning to `O=S(=O)(Nc1ccc(-c2cc3[nH]ncc3cn2)cc1)c1cc(Cl)ccc1Cl` [Example 563, 2,5-Dichloro-N-[4-(1H-pyrazolo[4,3-c]pyridin-6-yl)phenyl]benzenesulfonamide], in test [1], the IC50 came out at 52 nM.
The same measure, in the same setting: the value for `Nc1n[nH]c2cc(-c3ccc(NS(=O)(=O)c4cc(Cl)c(F)cc4F)cc3)nc(O)c12` [Example 549, N-[4-(3-Amino-4-hydroxy-1H-pyrazolo[4,3-c]pyridin-6-yl)phenyl]-5-chloro-2,4-difluoro-benzenesulfonamide] was 7.7 nM.
For the compound `Cc1ccc(C#N)c(S(=O)(=O)Nc2ccc(-c3cc4[nH]nc(C)c4cn3)cc2)c1` [Example 561, 2-Cyano-5-methyl-N-[4-(3-methyl-1H-pyrazolo[4,3-c]pyridin-6-yl)phenyl]benzenesulfonamide], the 50% inhibitory concentration (IC50) amounted to 2700 nM in test [2] (Homo sapiens, U2OS, 6 h) and 7.8 nM in test [1].
Turning to `Nc1n[nH]c2nc(-c3ccc(NS(=O)(=O)c4cc(F)ccc4F)cc3)ncc12` [Example 519], the half-inhibitory concentration (IC50) in test [3] stood at 260 nM; in test [4] it was 1100 nM; in test [2] (U2OS cells, 6 h incubation, ratio of phosphorylated GSK3beta to total GSK3beta), 260 nM; in test [5] it was 190 nM.

As a reminder, the IC50 is the midpoint of a concentration-inhibition curve.
